According to patent US7759345B2, “Antitumoral derivatives of ET-743” (priority 2001, dated 2010):

Legend:
IGROV-ET = experiment: Inhibition of cells growth by colorimetric assay (SRB), IGROV-ET; format: cell-based; conditions: for GI50 / CC50: Homo sapiens, 48 h; for GI50 / IGROV-ET TGI: SRB assay, 48 hours exposure; for GI50: read-out: IGROV-ET GI50; for CC50: read-out: IGROV-ET LC50, SRB assay, 48 hours exposure
Outline: (§1)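 Human cancer cells (5×10^3/well) attached 18 h in RPMI 1640 10% FBS, then exposed 48 h at 37°C to compounds from 10 to 10^−8 μg/ml in DMSO/EtOH/PBS. TCA-fixed, SRB-stained, OD read at 490 nm; GI, TGI and LC derived from triplicate wells.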

SK-OV-3 = experiment: Inhibition of cells growth by colorimetric assay (SRB), SK-OV-3; format: cell-based; conditions: for GI50 / LC50: Homo sapiens, SK-OV-3, 48 h; for GI50 / SK-OV3 TGI: SRB assay, 48 hours exposure; for GI50: read-out: SK-OV3 GI50; for LC50: read-out: SK-OV3 LC50, SRB assay, 48 hours exposure
Outline: as §1

LoVo = experiment: Inhibition of cells growth by colorimetric assay (SRB), LoVo; format: cell-based; conditions: for GI50 / LC50 (concentration for 50% cell killing): Homo sapiens, LoVo, 48 h; for GI50 / LOVO TGI: SRB assay, 48 hours exposure; for GI50: read-out: LOVO GI50; for LC50 (concentration for 50% cell killing): read-out: LOVO LC50, SRB assay, 48 hours exposure
Outline: as §1

DU-145 = experiment: Inhibition of cells growth by colorimetric assay (SRB), DU-145; format: cell-based; conditions: for GI50 / CC50: Homo sapiens, DU-145, 48 h; for GI50 / DU-145 TGI: SRB assay, 48 hours exposure; for GI50: read-out: DU-145 GI50; for CC50: read-out: DU-145 LC50, SRB assay, 48 hours exposure
Outline: as §1

LoVo-Dox = experiment: Inhibition of cells growth by colorimetric assay (SRB), LoVo-Dox; format: cell-based; conditions: for GI50 / CC50: Homo sapiens, 48 h; for GI50 / LOVO-DOX TGI: SRB assay, 48 hours exposure; for GI50: read-out: LOVO-DOX GI50; for CC50: read-out: LOVO-DOX LC50, SRB assay, 48 hours exposure
Outline: as §1

IGROV-1 = experiment: Inhibition of cells growth by colorimetric assay (SRB), IGROV-1; format: cell-based; conditions: for GI50 / CC50: Homo sapiens, IGROV-1, 48 h; for GI50 / IGROV TGI: SRB assay, 48 hours exposure; for GI50: read-out: IGROV GI50; for CC50: read-out: IGROV LC50, SRB assay, 48 hours exposure
Outline: as §1

K-562 = experiment: Inhibition of cells growth by colorimetric assay (SRB), K-562; format: cell-based; conditions: for GI50 / LC50 (50% cell killing): Homo sapiens, K562, 48 h; for GI50 / K-562 TGI: SRB assay, 48 hours exposure; for GI50: read-out: K-562 GI50; for LC50 (50% cell killing): read-out: K-562 LC50, SRB assay, 48 hours exposure
Outline: as §1

A-549 = experiment: Inhibition of cells growth by colorimetric assay (SRB), A-549; format: cell-based; conditions: for GI50 / LC50 (concentration for 50% cell killing): Homo sapiens, A549, 48 h; for GI50 / A-549 TGI: SRB assay, 48 hours exposure; for GI50: read-out: A-549 GI50; for LC50 (concentration for 50% cell killing): read-out: A-549 LC50, SRB assay, 48 hours exposure
Outline: as §1

HMEC1 = experiment: Inhibition of cells growth by colorimetric assay (SRB), HMEC1; format: cell-based; conditions: for GI50 / LC50: Homo sapiens, HMEC-1, 48 h; for GI50 / HMEC-1 TGI: SRB assay, 48 hours exposure; for GI50: read-out: HMEC-1 GI50; for LC50: read-out: HMEC-1 LC50, SRB assay, 48 hours exposure
Outline: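 Using sulforhodamine B, cell growth and viability are quantified after a 48 h drug exposure of cells maintained in RPMI 1640/10% FBS at 37 °C, 5% CO2. Concentrations span 10 to 10^−8 μg/ml; optical density is read at 490 nm.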

SK-BR-3 = experiment: Inhibition of cells growth by colorimetric assay (SRB), SK-BR-3; format: cell-based; conditions: for GI50 / CC50: Homo sapiens, SK-BR-3, 48 h; for GI50 / SK-BR3 TGI: SRB assay, 48 hours exposure; for GI50: read-out: SK-BR3 GI50; for CC50: read-out: SK-BR3 LC50, SRB assay, 48 hours exposure
Outline: as §1

HT-29 = experiment: Inhibition of cells growth by colorimetric assay (SRB), HT-29; format: cell-based; conditions: for GI50 / LC50 (concentration for 50% cell killing): Homo sapiens, HT-29, 48 h; for GI50 / HT-29 TGI: SRB assay, 48 hours exposure; for GI50: read-out: HT-29 GI50; for LC50 (concentration for 50% cell killing): read-out: HT-29 LC50, SRB assay, 48 hours exposure
Outline: as §1

LNCaP = experiment: Inhibition of cells growth by colorimetric assay (SRB), LNCaP; format: cell-based; conditions: for GI50 / CC50: Homo sapiens, LNCaP, 48 h; for GI50: read-out: LNCAP GI50, SRB assay, 48 hours exposure; for CC50: read-out: LNCAP LC50, SRB assay, 48 hours exposure; for LNCAP TGI: SRB assay, 48 hours exposure
Outline: as §1

SK-MEL-28 = experiment: Inhibition of cells growth by colorimetric assay (SRB), SK-MEL-28; format: cell-based; conditions: for GI50 / CC50: Homo sapiens, SK-MEL-28, 48 h; for GI50 / MEL-28 TGI: SRB assay, 48 hours exposure; for GI50: read-out: MEL-28 GI50; for CC50: read-out: MEL-28 LC50, SRB assay, 48 hours exposure
Outline: as §1

PANC-1 = experiment: Inhibition of cells growth by colorimetric assay (SRB), PANC-1; format: cell-based; conditions: for GI50 / LC50 (concentration for 50% net cell kill): Homo sapiens, PANC-1, 48 h; for GI50 / PANC-1 TGI: SRB assay, 48 hours exposure; for GI50: read-out: PANC-1 GI50; for LC50 (concentration for 50% net cell kill): read-out: PANC-1 LC50, SRB assay, 48 hours exposure
Outline: as §1

Source text for Heart: (§2) Toxicity was asssessed by the methods reported in Toxicology in Vitro, 15 (2001) 571-577, J. Luber Narod et al.: “Evaluation of the use of in vitro methodolodies as tools for screening new compounds for potential in vivo toxicity”.
Source text for Kidney: as §2
Source text for Liver: as §2
Source text for Myelo: as §2
Source text for Skeletal: as §2

With `COc1cc2c(cc1O)CCN[C@]21CS[C@@H]2c3c(OC(=O)CCCCC4SCC5NC(=O)NC54)c(C)c4c(c3[C@H](COC1=O)N1C2[C@H]2c3c(cc(C)c(OC)c3O)C[C@@H]([C@@H]1O)N2C)OCO4` (stereo partly shown) [Compound 171] the “Toxicity Data Skeletal” value (Skeletal) was 3.58E-08, the GI50 (IGROV-ET) was 225 nM and the CC50 (IGROV-ET) was 10600 nM. For the same compound, the “IGROV-ET TGI” value (IGROV-ET) was 7.08E-07, the GI50 (SK-OV-3) was 6.89 nM and the LC50 (SK-OV-3) was 10600 nM. For the same compound, the “SK-OV3 TGI” value (SK-OV-3) was 9.73E-08, the “Toxicity Data Heart” value (Heart) was 3.13E-08 and the GI50 (LoVo) was 23.7 nM. The LC50 (concentration for 50% cell killing) (LoVo) was 10600 nM, the “LOVO TGI” value (LoVo) was 7.66E-08 and the GI50 (DU-145) was 5.05 nM. For the same compound, the CC50 (DU-145) was 10600 nM, the “DU-145 TGI” value (DU-145) was 2.96E-08 and the GI50 (LoVo-Dox) was 938 nM. For the same compound, the CC50 (LoVo-Dox) was 10600 nM, the “LOVO-DOX TGI” value (LoVo-Dox) was 1.23E-06 and the GI50 (IGROV-1) was 1.93 nM. For the same compound, the CC50 (IGROV-1) was 8.8 nM, the “IGROV TGI” value (IGROV-1) was 4.12E-09 and the GI50 (K-562) was 0.243 nM. For the same compound, the LC50 (50% cell killing) (K-562) was 0.982 nM, the “K-562 TGI” value (K-562) was 4.88E-10 and the GI50 (A-549) was 22.8 nM. The LC50 (concentration for 50% cell killing) (A-549) was 96 nM, the “A-549 TGI” value (A-549) was 4.68E-08 and the GI50 (HMEC1) was 2.94 nM. For the same compound, the LC50 (HMEC1) was 10600 nM, the “HMEC-1 TGI” value (HMEC1) was 6.90E-09 and the “Toxicity Data Liver” value (Liver) was 8.37E-08. The “Toxicity Data Myelo” value (Myelo) was 1.37E-07, the GI50 (SK-BR-3) was 2.47 nM and the CC50 (SK-BR-3) was 37.5 nM. The “SK-BR3 TGI” value (SK-BR-3) was 6.54E-09, the GI50 (HT-29) was 3.91 nM and the LC50 (concentration for 50% cell killing) (HT-29) was 10600 nM. For the same compound, the “HT-29 TGI” value (HT-29) was 3.24E-08, the GI50 (LNCaP) was 1.66 nM and the CC50 (LNCaP) was 5.94 nM. The “LNCAP TGI” value (LNCaP) was 3.14E-09, the GI50 (SK-MEL-28) was 5.65 nM and the CC50 (SK-MEL-28) was 102 nM. For the same compound, the “MEL-28 TGI” value (SK-MEL-28) was 2.33E-08, the “Toxicity Data Kidney” value (Kidney) was 2.70E-08 and the GI50 (PANC-1) was 7.3 nM. For the same compound, the LC50 (concentration for 50% net cell kill) (PANC-1) was 1060 nM and the “PANC-1 TGI” value (PANC-1) was 4.63E-08.

In the case of `COc1cc2c(cc1O)CCN[C@]21CS[C@@H]2c3c(OC(=O)CCCCC4SCC5NC(=O)NC54)c(C)c4c(c3[C@H](COC1=O)N1C2[C@H]2c3c(cc(C)c(OC)c3OC(=O)CCCCC3SCC5NC(=O)NC53)C[C@@H]([C@@H]1O)N2C)OCO4` (stereo partly shown) [Compound 172], the “Toxicity Data Skeletal” value (Skeletal) is reported as 8.53E-07, the GI50 (IGROV-ET) is reported as 165 nM and the CC50 (IGROV-ET) is reported as 853 nM. For the same compound, the “IGROV-ET TGI” value (IGROV-ET) was 4.18E-07, the GI50 (SK-OV-3) was 219 nM and the LC50 (SK-OV-3) was 853 nM. For the same compound, the “SK-OV3 TGI” value (SK-OV-3) was 5.09E-07, the “Toxicity Data Heart” value (Heart) was 7.52E-07 and the GI50 (LoVo) was 226 nM. The LC50 (concentration for 50% cell killing) (LoVo) was 853 nM, the “LOVO TGI” value (LoVo) was 4.61E-07 and the GI50 (DU-145) was 37.9 nM. For the same compound, the CC50 (DU-145) was 8530 nM, the “DU-145 TGI” value (DU-145) was 8.31E-08 and the GI50 (LoVo-Dox) was 2880 nM. For the same compound, the CC50 (LoVo-Dox) was 8530 nM, the “LOVO-DOX TGI” value (LoVo-Dox) was 7.23E-06 and the GI50 (IGROV-1) was 14.2 nM. For the same compound, the CC50 (IGROV-1) was 63.6 nM, the “IGROV TGI” value (IGROV-1) was 3.01E-08 and the GI50 (K-562) was 6.03 nM. For the same compound, the LC50 (50% cell killing) (K-562) was 35.3 nM, the “K-562 TGI” value (K-562) was 9.98E-09 and the GI50 (A-549) was 241 nM. For the same compound, the LC50 (concentration for 50% cell killing) (A-549) was 853 nM, the “A-549 TGI” value (A-549) was 4.59E-07 and the GI50 (HMEC1) was 432 nM. For the same compound, the LC50 (HMEC1) was 8530 nM, the “HMEC-1 TGI” value (HMEC1) was 8.53E-06 and the “Toxicity Data Liver” value (Liver) was 2.47E-07. The “Toxicity Data Myelo” value (Myelo) was 3.81E-07, the GI50 (SK-BR-3) was 50.2 nM and the CC50 (SK-BR-3) was 785 nM. The “SK-BR3 TGI” value (SK-BR-3) was 2.00E-07, the GI50 (HT-29) was 38.8 nM and the LC50 (concentration for 50% cell killing) (HT-29) was 8530 nM. The “HT-29 TGI” value (HT-29) was 1.43E-07, the GI50 (LNCaP) was 27.7 nM and the CC50 (LNCaP) was 66.8 nM. The “LNCAP TGI” value (LNCaP) was 4.31E-08, the GI50 (SK-MEL-28) was 1.31 nM and the CC50 (SK-MEL-28) was 7.97 nM. The “MEL-28 TGI” value (SK-MEL-28) was 3.22E-09, the “Toxicity Data Kidney” value (Kidney) was 7.93E-07 and the GI50 (PANC-1) was 326 nM. For the same compound, the LC50 (concentration for 50% net cell kill) (PANC-1) was 8530 nM and the “PANC-1 TGI” value (PANC-1) was 8.34E-07.
